Measured values from patent US20170008888A1 (KYORIN PHARMACEUTICAL CO., LTD., priority 2014, published 2017).
Where two headings read alike, the source gives them in different places.

Columns and labels:
[1] = system: ABL or ARG; test: Probe-based (AX9989) kinase profiling in Jurkat lysate: ABL or ARG; format: binding
Method in brief: (§1)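 Read-out: LC/MS intensity of desthiobiotinylated kinase active-site peptides, percent inhibition normalized to no-compound lysate. Jurkat lysate with 20 mM MnCl2 received compound for 15 min at room temperature, then 5 μM AX9989 probe; duplicates.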

[2] = target: T1, ERK5 (Homo sapiens, UniProt Q13164); test: Probe-based (AX9989 acyl phosphate ATP probe) kinase profiling in Jurkat lysate: ERK5; format: binding; conditions: for IC50: Jurkat lysate; for inhibition at 0.1 µM: screening concentration 0.1 μM
T1 construct: screened for activity against several kinases in Jurkat cells; endogenous in cells; host or cells: Jurkat cell lysate
Method in brief: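 ERK5 IC50 values came from percent inhibition at the screening concentration, measured as loss of LC/MS signal of probe-labelled active-site peptides. Compound was added for 15 min at room temperature to Jurkat lysate (5 mg/ml, 20 mM MnCl2) before labelling with AX9989 ATP acyl phosphate probe at 5 μM.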

[3] = target: T2, BRD4 bromodomain domain I [BRD4(1)] (Homo sapiens, UniProt O60885); test: BRD4 bromodomain domain 1 inhibition assay (TR-FRET); format: binding; conditions: screening concentration 10 μM
T2 construct: BRD4 bromodomain domain I [BRD4(1)]; purchased Cayman Chemicals
Method in brief: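 0.5% DMSO, in triplicate, using Cayman BRD4(1) TR-FRET protocol with slight modification. 670/620 nm ratio normalized to 10 μM JQ1, with DMSO control set as 0% inhibition.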

[4] = target: T3, JAK1 (Homo sapiens, UniProt P23458); test: Probe-based (AX9989) kinase profiling in Jurkat lysate: JAK1; format: binding; conditions: for inhibition at 0.1 µM: screening concentration 0.1 μM
T3 construct: screened for activity against several kinases in Jurkat cells; endogenous in cells; host or cells: Jurkat cell lysate
Method in brief: as §1

[5] = system: human PBMCs; test: Human PBMC TNF-α response to endotoxin (ELISA); format: cell-based; conditions: 0.1 μg/ml LPS 16 h, read-out: EC50 for the inhibition of the human PBMC TNF-α response to endotoxin, ave. ± S.D.
Method in brief: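 PBMCs at 2e6 cells/ml in RPMI 1640 with 10% charcoal-dextran-treated FBS were pre-treated 1 h at 37 °C with compound (4-point 1:5 dilution from 10 μM). Stimulation with 0.1 μg/ml E. coli 0111:B4 LPS for 16 h; TNF-α measured by ELISA (A450) in 25-fold diluted supernatant.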

[6] = target: T4, ACK (Homo sapiens, UniProt Q07912); test: Probe-based (AX9989) kinase profiling in Jurkat lysate: ACK; format: binding; conditions: for inhibition at 0.1 µM: screening concentration 0.1 μM
T4 construct: screened for activity against several kinases in Jurkat cells; endogenous in cells; host or cells: Jurkat cell lysate
Method in brief: as §1

[7] = calculated from percent inhibition of AX9989 labeling and the screening concentration
[8] = read-out: Kinase inhibition % at indicated screening concentration: ERK5
[9] = read-out: Kinase inhibition % at indicated screening concentration: JAK1
[10] = read-out: Kinase inhibition % at indicated screening concentration: ACK
[11] = screening concentration 1.0 μM, read-out: Kinase inhibition % at indicated screening concentration: ERK5
[12] = screening concentration 1.0 μM, read-out: Kinase inhibition % at indicated screening concentration: JAK1
[13] = screening concentration 1.0 μM, read-out: Kinase inhibition % at indicated screening concentration: ACK

T4 sequence (Q07912 whole entry): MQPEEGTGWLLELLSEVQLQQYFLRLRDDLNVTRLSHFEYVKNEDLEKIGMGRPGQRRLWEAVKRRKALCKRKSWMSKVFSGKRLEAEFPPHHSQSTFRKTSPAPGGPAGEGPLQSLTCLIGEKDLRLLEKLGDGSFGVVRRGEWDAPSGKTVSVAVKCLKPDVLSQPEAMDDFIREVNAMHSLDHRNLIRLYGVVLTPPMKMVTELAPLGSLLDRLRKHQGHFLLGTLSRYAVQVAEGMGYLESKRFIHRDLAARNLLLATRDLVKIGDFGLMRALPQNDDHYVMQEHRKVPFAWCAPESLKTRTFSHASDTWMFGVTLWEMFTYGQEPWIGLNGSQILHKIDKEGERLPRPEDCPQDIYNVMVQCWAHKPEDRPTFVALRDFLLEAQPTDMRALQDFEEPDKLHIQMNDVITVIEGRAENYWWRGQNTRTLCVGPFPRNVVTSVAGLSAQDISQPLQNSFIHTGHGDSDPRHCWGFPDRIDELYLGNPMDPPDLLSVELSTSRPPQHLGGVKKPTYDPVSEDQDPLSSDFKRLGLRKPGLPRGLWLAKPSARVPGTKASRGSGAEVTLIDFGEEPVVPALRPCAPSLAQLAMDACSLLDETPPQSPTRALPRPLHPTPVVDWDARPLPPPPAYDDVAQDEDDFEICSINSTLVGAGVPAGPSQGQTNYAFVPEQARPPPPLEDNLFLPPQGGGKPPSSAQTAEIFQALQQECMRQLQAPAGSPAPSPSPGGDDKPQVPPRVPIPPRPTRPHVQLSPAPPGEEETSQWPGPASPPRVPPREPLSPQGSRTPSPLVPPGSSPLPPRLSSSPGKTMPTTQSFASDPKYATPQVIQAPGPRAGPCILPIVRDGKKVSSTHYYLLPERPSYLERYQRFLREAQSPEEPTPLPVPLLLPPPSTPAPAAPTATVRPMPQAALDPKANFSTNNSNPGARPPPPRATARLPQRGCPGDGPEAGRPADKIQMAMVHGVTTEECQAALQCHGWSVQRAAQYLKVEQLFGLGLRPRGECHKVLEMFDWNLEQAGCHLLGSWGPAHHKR
T3 sequence (P23458 whole entry): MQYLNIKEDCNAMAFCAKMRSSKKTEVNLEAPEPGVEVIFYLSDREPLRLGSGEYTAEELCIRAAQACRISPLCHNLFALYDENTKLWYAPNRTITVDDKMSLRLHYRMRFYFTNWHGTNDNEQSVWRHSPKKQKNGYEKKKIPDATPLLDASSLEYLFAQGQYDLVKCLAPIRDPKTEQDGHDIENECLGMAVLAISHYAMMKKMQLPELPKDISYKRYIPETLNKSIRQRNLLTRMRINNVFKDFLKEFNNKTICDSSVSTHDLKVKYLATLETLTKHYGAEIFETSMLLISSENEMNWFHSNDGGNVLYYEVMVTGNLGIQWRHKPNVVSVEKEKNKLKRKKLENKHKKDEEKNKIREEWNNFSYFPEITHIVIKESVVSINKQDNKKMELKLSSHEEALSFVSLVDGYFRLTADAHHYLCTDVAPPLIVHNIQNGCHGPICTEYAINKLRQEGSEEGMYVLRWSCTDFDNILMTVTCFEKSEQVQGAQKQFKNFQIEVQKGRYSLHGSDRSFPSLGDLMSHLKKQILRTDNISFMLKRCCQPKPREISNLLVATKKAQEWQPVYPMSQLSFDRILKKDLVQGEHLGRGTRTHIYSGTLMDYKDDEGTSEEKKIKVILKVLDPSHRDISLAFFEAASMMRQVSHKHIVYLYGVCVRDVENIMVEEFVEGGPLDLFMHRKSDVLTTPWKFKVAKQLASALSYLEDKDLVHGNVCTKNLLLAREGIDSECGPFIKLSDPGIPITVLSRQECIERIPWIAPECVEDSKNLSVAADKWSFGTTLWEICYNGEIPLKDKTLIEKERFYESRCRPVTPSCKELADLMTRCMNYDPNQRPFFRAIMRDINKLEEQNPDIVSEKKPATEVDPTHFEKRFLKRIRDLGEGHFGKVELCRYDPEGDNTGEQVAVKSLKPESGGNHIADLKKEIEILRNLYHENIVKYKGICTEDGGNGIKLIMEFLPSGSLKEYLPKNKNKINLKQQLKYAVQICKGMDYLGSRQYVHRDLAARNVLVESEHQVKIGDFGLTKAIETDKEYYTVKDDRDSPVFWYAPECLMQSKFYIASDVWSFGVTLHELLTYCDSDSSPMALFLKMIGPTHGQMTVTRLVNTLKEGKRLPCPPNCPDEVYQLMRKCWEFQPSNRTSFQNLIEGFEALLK
T1 sequence (Q13164 whole entry): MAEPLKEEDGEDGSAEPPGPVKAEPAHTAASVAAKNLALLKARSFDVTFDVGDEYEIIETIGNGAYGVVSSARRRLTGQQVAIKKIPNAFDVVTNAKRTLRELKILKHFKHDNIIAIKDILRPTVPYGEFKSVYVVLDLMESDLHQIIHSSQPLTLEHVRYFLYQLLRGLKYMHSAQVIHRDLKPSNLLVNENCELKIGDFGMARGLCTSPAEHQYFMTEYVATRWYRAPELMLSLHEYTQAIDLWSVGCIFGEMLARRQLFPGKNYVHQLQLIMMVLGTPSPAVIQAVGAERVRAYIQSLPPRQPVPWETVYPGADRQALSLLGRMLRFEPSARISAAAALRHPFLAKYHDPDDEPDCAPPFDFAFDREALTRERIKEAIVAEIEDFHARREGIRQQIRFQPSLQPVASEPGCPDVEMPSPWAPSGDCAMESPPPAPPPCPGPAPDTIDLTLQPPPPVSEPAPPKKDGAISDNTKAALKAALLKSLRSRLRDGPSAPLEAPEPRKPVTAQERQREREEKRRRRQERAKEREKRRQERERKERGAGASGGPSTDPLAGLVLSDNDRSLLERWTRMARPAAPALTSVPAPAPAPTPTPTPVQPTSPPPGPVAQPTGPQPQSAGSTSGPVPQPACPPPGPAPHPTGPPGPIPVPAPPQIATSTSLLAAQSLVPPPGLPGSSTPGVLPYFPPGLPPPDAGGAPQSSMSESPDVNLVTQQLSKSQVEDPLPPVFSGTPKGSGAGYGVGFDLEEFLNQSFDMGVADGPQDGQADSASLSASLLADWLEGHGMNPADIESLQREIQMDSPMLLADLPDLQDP

## COc1cc(C(=O)N2CCC(N(C)C)C2)ccc1Nc1cc2c(cn1)N(C)C(=O)c1ccccc1N2C (centres unmarked) [Compound 70]
[1]; screening concentration 0.1 μM
  Kinase inhibition % at indicated screening concentration: ABL or ARG: E (E is ≦35%)
[2]; [7]
  IC50: ≤ 50 nM
[2]; [8]
  inhibition at 0.1 µM: 50 to 75%
[3]
  inhibition at 10 µM: 70 to 85%
[4]; [9]
  inhibition at 0.1 µM: ≤ 35%
[5]
  EC50: 2100 nM
[6]; [10]
  inhibition at 0.1 µM: ≤ 35%

## CN1C(=O)c2ccccc2N(C)c2cc(NC3CCC(C(=O)NC4CCOCC4)CC3)ncc21 (centres unmarked) [Compound 64]
[1]; screening concentration 1.0 μM
  Kinase inhibition % at indicated screening concentration: ABL or ARG: E (E is ≦35%)
[2]; [7]
  IC50: 101 to 500 nM
[2]; [11]
  inhibition at 1 µM: 75 to 90%
[3]
  inhibition at 10 µM: < 70%
[4]; [12]
  inhibition at 1 µM: ≤ 35%
[5]
  EC50: 3170 nM
[6]; [13]
  inhibition at 1 µM: ≤ 35%

## CCOc1cc(C(=O)N2C[C@H]3CCN[C@H]3C2)ccc1Nc1cc2c(cn1)N(C)C(=O)c1ccccc1N2C [Compound T5]
[1]; screening concentration 1 μM
  ABL or ARG Inhibition % at indicated screening concentration: E (E is ≦35%)
[2]; calculated from percent inhibition and screening concentration, AX9989 probe
  IC50: ≤ 50 nM
[2]; screening concentration 1 μM, read-out: ERK5 Inhibition % at indicated screening concentration
  inhibition at 1 µM: > 90%
[3]
  inhibition at 10 µM: 70 to 85%
[4]; screening concentration 1 μM, read-out: JAK1 Inhibition % at indicated screening concentration
  inhibition at 1 µM: ≤ 35%
[5]
  EC50: 840 nM
[6]; screening concentration 1 μM, read-out: ACK Inhibition % at indicated screening concentration
  inhibition at 1 µM: ≤ 35%

## CCOc1cc(C(=O)N2CCCN(C)CC2)ccc1Nc1cc2c(cn1)N(C)C(=O)c1ccccc1N2C [Compound 8]
[1]; screening concentration 1.0 μM
  Kinase inhibition % at indicated screening concentration: ABL or ARG: E (E is ≦35%)
[2]; [7]
  IC50: 101 to 500 nM
[2]; [11]
  inhibition at 1 µM: > 90%
[3]
  inhibition at 10 µM: 70 to 85%
[4]; [12]
  inhibition at 1 µM: ≤ 35%
[5]
  EC50: 650 nM
[6]; [13]
  inhibition at 1 µM: ≤ 35%

## CCOc1cc(C(=O)N2CCOCC2)ccc1Nc1cc2c(cn1)N(C)C(=O)c1ccccc1N2C [Compound 111]
[1]; screening concentration 1.0 μM
  Kinase inhibition % at indicated screening concentration: ABL or ARG: E (E is ≦35%)
[2]; [7]
  IC50: ≤ 50 nM
[2]; [11]
  inhibition at 1 µM: ≤ 35%
[3]
  inhibition at 10 µM: > 85%
[4]; [12]
  inhibition at 1 µM: ≤ 35%
[5]
  EC50: 540 nM
[6]; [13]
  inhibition at 1 µM: ≤ 35%

## CCOc1cc(C(=O)N2CC[C@@H](N(CC)CC)C2)ccc1Nc1cc2c(cn1)N(C)C(=O)c1occc1N2C [Compound 67]
[1]; screening concentration 0.1 μM
  Kinase inhibition % at indicated screening concentration: ABL or ARG: E (E is ≦35%)
[2]; [7]
  IC50: ≤ 50 nM
[2]; [8]
  inhibition at 0.1 µM: > 90%
[3]
  inhibition at 10 µM: > 85%
[4]; [9]
  inhibition at 0.1 µM: ≤ 35%
[5]
  EC50: 920 ± 180 nM
[6]; [10]
  inhibition at 0.1 µM: ≤ 35%

## CCOc1cc(C(=O)N[C@H]2CCCOC2)ccc1Nc1cc2c(cn1)N(C)C(=O)c1ccccc1N2C [Compound 100]
[1]; screening concentration 1.0 μM
  Kinase inhibition % at indicated screening concentration: ABL or ARG: E (E is ≦35%)
[2]; [7]
  IC50: > 500 nM
[2]; [11]
  inhibition at 1 µM: 50 to 75%
[3]
  inhibition at 10 µM: 70 to 85%
[4]; [12]
  inhibition at 1 µM: ≤ 35%
[5]
  EC50: 1020 nM
[6]; [13]
  inhibition at 1 µM: ≤ 35%

## CN1C(=O)c2ccccc2N(C)c2cc(NC3CCOCC3)ncc21 [Compound 102]
[1]; screening concentration 1.0 μM
  Kinase inhibition % at indicated screening concentration: ABL or ARG: E (E is ≦35%)
[2]; [7]
  IC50: 101 to 500 nM
[2]; [11]
  inhibition at 1 µM: 75 to 90%
[3]
  inhibition at 10 µM: < 70%
[4]; [12]
  inhibition at 1 µM: ≤ 35%
[5]
  EC50: 2520 nM
[6]; [13]
  inhibition at 1 µM: ≤ 35%

## CCOc1cc(C(=O)NCCOCCO)ccc1Nc1cc2c(cn1)N(C)C(=O)c1ccccc1N2C [Compound 101]
[1]; screening concentration 1.0 μM
  Kinase inhibition % at indicated screening concentration: ABL or ARG: E (E is ≦35%)
[2]; [7]
  IC50: 101 to 500 nM
[2]; [11]
  inhibition at 1 µM: 75 to 90%
[3]
  inhibition at 10 µM: 70 to 85%
[4]; [12]
  inhibition at 1 µM: ≤ 35%
[5]
  EC50: 970 nM
[6]; [13]
  inhibition at 1 µM: ≤ 35%

## CCOc1cc(C(=O)N2CCNCC2)ccc1Nc1cc2c(cn1)N(C)C(=O)c1ccccc1N2C [Compound 62]
[1]; screening concentration 1.0 μM
  Kinase inhibition % at indicated screening concentration: ABL or ARG: E (E is ≦35%)
[2]; [7]
  IC50: ≤ 50 nM
[2]; [11]
  inhibition at 1 µM: > 90%
[3]
  inhibition at 10 µM: 70 to 85%
[4]; [12]
  inhibition at 1 µM: ≤ 35%
[5]
  EC50: 720 nM
[6]; [13]
  inhibition at 1 µM: ≤ 35%

## CCOc1cc(C(=O)NCCCN(CC)CC)ccc1Nc1cc2c(cn1)N(C)C(=O)c1ccccc1N2C [Compound 54]
[1]; screening concentration 1.0 μM
  Kinase inhibition % at indicated screening concentration: ABL or ARG: E (E is ≦35%)
[2]; [7]
  IC50: 101 to 500 nM
[2]; [11]
  inhibition at 1 µM: 75 to 90%
[3]
  inhibition at 10 µM: > 85%
[4]; [12]
  inhibition at 1 µM: ≤ 35%
[5]
  EC50: 600 nM
[6]; [13]
  inhibition at 1 µM: ≤ 35%
